The subject of the assay is SARS-CoV-2 strain BavPat1. Briefly: Determination of EC50 and EC90: inhibition of SARS-CoV-2 viral RNA replication in Vero E6 cells (RT-qPCR). The class given is cell-based. To be noted: for EC50: Severe acute respiratory syndrome coronavirus 2, Vero C1008, 48 h, read-out: EC50 (compound concentration required to inhibit viral RNA replication by 50%). In general terms: In qPCR the cycle at which signal appears reflects the starting amount.

This is an account of results in patent publication US20230146096A1, “USE OF VIDOFLUDIMUS FOR THE TREATMENT OF CORONAVIRUS INFECTIONS” (INSERM (Institut National de la Santé et de la Recherche …, priority 2020, published 2023).

Where two headings read alike, the source gives them in different places.

As to `COc1cccc(-c2ccc(NC(=O)C3=C(C(=O)O)CCC3)c(F)c2)c1` [Vidofludimus, 2-[[2-fluoro-4-(3-methoxyphenyl)phenyl]carbamoyl]cyclopentene-1-carboxylic acid], the EC50 (Vero E6 cells, MOI 0.002, 2 days at 37° C., viral RNA in supernatant, logarithmic interpolation) was found to be 23.1 µM. Where the note is “Vero E6 cells, two days of culture”, the “effect on replication of SARS-CoV-2” value is listed as “can repress the replication of SARS-CoV-2 in a significant manner”.
On to `CCC(CC)COC(=O)[C@H](C)N[P@](=O)(OC[C@H]1O[C@@](C#N)(c2ccc3c(N)ncnn23)[C@H](O)[C@@H]1O)Oc1ccccc1` [remdesivir], for which the EC50 was 6.65 µM.
